Assays:
S100B [1] = biological target: T1, S100B (Homo sapiens, UniProt P04271); experiment: Competition pull-down with native ligand RSK1 (689–735); assay type: binding; details: H14 library; competitor peptide 200 µM; read-out: Surface mapping KD (apparent), competition
T1 construct: made in house; host or cells: Escherichia coli BL21(DE3)
T1 sequence (P04271 1-92): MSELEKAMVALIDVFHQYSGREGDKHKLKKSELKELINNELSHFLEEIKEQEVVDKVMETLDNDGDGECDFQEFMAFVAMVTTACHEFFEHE

CaM [2] = biological target: T2, CaM (Bos taurus, UniProt P62157); experiment: Competition pull-down with native ligand TRPV1-Ct15; assay type: binding, bovine; details: H14 library; competitor peptide 200 µM; read-out: Surface mapping KD (apparent), competition
T2 construct: made in house; host or cells: E. coli BL21 (DE3)

RecQ-WH [3] = biological target: T3, RecQ-WH (Escherichia coli, UniProt P15043); experiment: Competition pull-down with native ligand SSB-Ct8; assay type: binding, E. coli; details: H14 library; competitor peptide 200 µM; read-out: Surface mapping KD (apparent), competition
T3 construct: coding for residues 408– 523 of E. coli RecQ; made in house; host or cells: E. coli BL21(DE3)

CaM [4] = biological target: T2, CaM; experiment: Pull-down assay with immobilized protein and LSM libraries; assay type: binding, bovine; details: H14 library; 1:2 stoichiometry assumed; read-out: Surface mapping KD (apparent)
Method in brief: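 CaM buffer was 20 mM HEPES pH 7.4, 150 mM NaCl, 5 mM CaCl2. LSM sublibrary members ([…]) incubated 30 min, RT, with equimolar His-tagged protein on Co-NTA resin. HPLC-MS measured unbound probes; bound fraction relative to resin-only background gave dissociation constants.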

RecQ-WH [5] = biological target: T3, RecQ-WH; experiment: as above; design: species or system E. coli; details: H14 library; 1:1 binding assumed; read-out: Surface mapping KD (apparent)
Method in brief: (§1)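 Buffers were HEPES pH 7.4 with 150 mM NaCl, plus 1 mM TCEP and 1 mM CaCl2 (50 mM HEPES) for S100A4 and S100B, 1 mM TCEP for Gal-1, and no additive for RecQ-WH. Immobilized protein at 64 µM was equilibrated 30 min with the LSM sublibrary, and unbound probes were measured by LC-MS.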

S100A4 = biological target: T4, S100A4 (Homo sapiens, UniProt P26447); experiment: as above; assay type: binding; details: H14 library; 1:1 binding assumed; read-out: Surface mapping KD (apparent)
T4 construct: made in house; host or cells: Escherichia coli BL21(DE3)
Method in brief: as §1

S100B [6] = biological target: T1, S100B; experiment: as above; assay type: binding; details: H14 library; 1:1 binding assumed; read-out: Surface mapping KD (apparent)
Method in brief: as §1

Gal-1 [7] = biological target: T5, Gal-1 (Homo sapiens, UniProt P09382); experiment: as above; assay type: binding; details: H14 library; 1:1 binding assumed; read-out: Surface mapping KD (apparent)
T5 construct: made in house; host or cells: E. coli BL21(DE3)
Method in brief: as §1

Gal-1 [8] = biological target: T5, Gal-1; experiment: Competition pull-down with lactose; assay type: binding; details: H14 library; lactose 10 mM; read-out: Surface mapping KD (apparent), competition
Method in brief: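 His6-tagged proteins immobilized on Co-NTA resin at 64 µM final with 64-member LSM foldamer sublibraries (1 M each, as printed) in pH 7.4 HEPES/NaCl buffers (Ca2+/TCEP per target), 30 min RT; competitor peptides 200 µM final, lactose 10 mM for Gal-1. Bound fractions from LC-MS loss vs protein-free resin; KD assuming 1:1 binding.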

T5 sequence (P09382 whole entry): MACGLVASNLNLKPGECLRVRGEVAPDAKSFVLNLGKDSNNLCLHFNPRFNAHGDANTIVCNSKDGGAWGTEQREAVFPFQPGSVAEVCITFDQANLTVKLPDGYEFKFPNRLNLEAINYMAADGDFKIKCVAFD
T4 sequence (P26447 whole entry): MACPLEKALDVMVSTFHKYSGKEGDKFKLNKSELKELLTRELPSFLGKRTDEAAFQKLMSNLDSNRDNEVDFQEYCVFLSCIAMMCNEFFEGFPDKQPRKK
T3 sequence (P15043 408-523): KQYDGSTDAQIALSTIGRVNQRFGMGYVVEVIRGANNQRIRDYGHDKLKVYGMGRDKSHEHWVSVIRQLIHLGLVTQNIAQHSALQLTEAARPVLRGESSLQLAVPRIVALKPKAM

Compound	Kd (S100B [1])	Kd (CaM [2])	Kd (RecQ-WH [3])	Kd (CaM [4])	Kd (RecQ-WH [5])	Kd (S100A4)	Kd (S100B [6])	Kd (Gal-1 [7])	Kd (Gal-1 [8])
NC(=O)[C@H]1CCCC[C@@H]1NC(=O)C[C@H](CO)NC(=O)[C@H]1CCCC[C@@H]1NC(=O)[C@H]1CCCC[C@@H]1NC(=O)C[C@H](Cc1c[nH]c2ccccc12)NC(=O)[C@H]1CCCC[C@@H]1N [H14 WS]	434 µM	307 µM	352 µM	9 µM	209 µM	176 µM	138 µM	467 µM	
NC(=O)[C@H]1CCCC[C@@H]1NC(=O)C[C@H](CC(=O)O)NC(=O)[C@H]1CCCC[C@@H]1NC(=O)[C@H]1CCCC[C@@H]1NC(=O)C[C@H](Cc1c[nH]c2ccccc12)NC(=O)[C@H]1CCCC[C@@H]1N [H14 WD]			479 µM	308 µM	145 µM				
N=C(N)NCCC[C@@H](CC(=O)N[C@H]1CCCC[C@@H]1C(N)=O)NC(=O)[C@H]1CCCC[C@@H]1NC(=O)[C@H]1CCCC[C@@H]1NC(=O)C[C@H](Cc1ccccc1)NC(=O)[C@H]1CCCC[C@@H]1N [H14 FR]	406 µM	290 µM		3 µM	447 µM	124 µM	56 µM	222 µM	208 µM
N=C(N)NCCC[C@@H](CC(=O)N[C@H]1CCCC[C@@H]1C(N)=O)NC(=O)[C@H]1CCCC[C@@H]1NC(=O)[C@H]1CCCC[C@@H]1NC(=O)C[C@H](Cc1c[nH]c2ccccc12)NC(=O)[C@H]1CCCC[C@@H]1N [H14 WR]	166 µM	167 µM		0.5 µM	272 µM	81 µM	32 µM	278 µM	280 µM
C[C@@H](CC(=O)N[C@H]1CCCC[C@@H]1C(=O)N[C@H]1CCCC[C@@H]1C(=O)N[C@H](CC(=O)N[C@H]1CCCC[C@@H]1C(N)=O)Cc1ccccc1)NC(=O)[C@H]1CCCC[C@@H]1N [H14 AF]	354 µM		454 µM	5 µM	483 µM	13 µM	45 µM	121 µM	333 µM
C[C@@H](O)[C@@H](CC(=O)N[C@H]1CCCC[C@@H]1C(=O)N[C@H]1CCCC[C@@H]1C(=O)N[C@H](CC(=O)N[C@H]1CCCC[C@@H]1C(N)=O)Cc1ccccc1)NC(=O)[C@H]1CCCC[C@@H]1N [H14 TF]	294 µM	94 µM		163 µM	407 µM	43 µM	44 µM	140 µM	220 µM
CSCC[C@@H](CC(=O)N[C@H]1CCCC[C@@H]1C(=O)N[C@H]1CCCC[C@@H]1C(=O)N[C@H](CC(=O)N[C@H]1CCCC[C@@H]1C(N)=O)Cc1ccccc1)NC(=O)[C@H]1CCCC[C@@H]1N [H14 MF]	316 µM	133 µM		2 µM	304 µM	23 µM	85 µM	223 µM	181 µM
NC(=O)[C@H]1CCCC[C@@H]1NC(=O)C[C@H](Cc1ccc(O)cc1)NC(=O)[C@H]1CCCC[C@@H]1NC(=O)[C@H]1CCCC[C@@H]1NC(=O)C[C@H](Cc1ccccc1)NC(=O)[C@H]1CCCC[C@@H]1N [H14 FY]	146 µM		231 µM	3 µM	92 µM	57 µM	96 µM	214 µM	395 µM
NC(=O)[C@H]1CCCC[C@@H]1NC(=O)C[C@H](Cc1ccc(O)cc1)NC(=O)[C@H]1CCCC[C@@H]1NC(=O)[C@H]1CCCC[C@@H]1NC(=O)C[C@H](Cc1ccc(O)cc1)NC(=O)[C@H]1CCCC[C@@H]1N [H14 YY]	393 µM		298 µM	7 µM	114 µM	70 µM	121 µM	375 µM	
NC(=O)[C@H]1CCCC[C@@H]1NC(=O)C[C@H](Cc1c[nH]c2ccccc12)NC(=O)[C@H]1CCCC[C@@H]1NC(=O)[C@H]1CCCC[C@@H]1NC(=O)C[C@H](CO)NC(=O)[C@H]1CCCC[C@@H]1N [H14 SW]	458 µM		265 µM	23 µM	73 µM	179 µM	79 µM	151 µM	177 µM

Source: PMC8162404, “Proteomimetic surface fragments distinguish targets by function” (Chemical Science, 2020)
